From US6589951B1, “Phthalazine derivatives as phosphodiesterase 4 inhibitors” (Zambon Group S.p.A., priority 1997, dated 2003)

Columns and labels:
[1] = target: PDE 4; assay: PDE 4 enzyme inhibition test (SPA); format: biochemical, human; details: for activity on PDE 4 (in words): summary statement in description
Method: The polymorphonucleate leukocytes (PMNs) were isolated from peripheral blood of healthy volunteers according to what described by Boyum A, Scand. J. Immunol., 1976, 5° suppl., 9). Shortly, the isolation of the PMNs was effected by Ficoll-Paque gradient centrifugation followed by sedimentation on dextrane and the erythrocyte contamination was eliminated by hypotonic lysis.
The human PMNs were resuspended in TRIS/HCl buffer (10 mM pH 7.8) containing MgCl2 (5mM), EGTA (4 mM), mercaptoethanol (5 mM), TRITON-X100 (1%), pepstatin A (1 μM), PMSF (100 μM) and leupeptin (1 μM), and homogenised by Polytron. The homogenate was centrifuged at 25,000×g for 30 minutes at 4° C. and the surnatant was used for the PDE 4 enzyme purification by ion exchange chromatography using the FPLC technique according to what described by Schudt C. et al., Naunyn-Schmidberg's Arch. Pharmacol., 1991, 334, 682. The surnatant was seeded on a UNO Q12 column (Bio-Rad) and the enzyme was eluted by sodium acetate gradient from 50mM to 1M. The fractions containing enzymatic activity were joined, dialysed against water and concentrated. The resulting PDE 4 enzyme was stored at −20° C. in the presence of ethylenglycole (30%) v/v) until use.
The enzyme activity was assessed with an Amersham kit based on the SPA technique (Scintillation Proximity Assay). The enzymatic reaction was effected in a total volume of 100 μl of TRIS/HCl buffer (50 mM, pH7.5), MgCl2 (8.3mM), EGTA (1.7 mM), cAMP (1μM) and [^3H]cAMP (˜100.000 dpm). The compounds of the invention and the reference ones were added at the wanted concentrations. As reference compounds 6,7 dimethoxy-4-(pyridin-4-ylmethyl)-2H-phthalazin-1 on (reference 1) and 6,7-dimethoxy-4-(piperidin-4-ylmethyl)-2H-phthalazin-1-one (reference 2) embraced by the general formula of the patent application EP-0 722 936 (in the name of Eisai) were used. The reaction was started by adding the enzyme (15 μg protein/ml) in 40 minutes at 30° C. and stopped with 50 μl of SPA particles suspension. The radioactivity of the particles was measured in β-emitting counter. The IC50 values were computed over 9 equidistant concentrations in logarithmic scale using a 4-parameters logistic function by a software.

[2] = target: T1, PDE 3 (Homo sapiens, UniProt Q14432); assay: PDE 3 enzyme inhibition test (SPA); format: biochemical; details: at 10^-6 M; enzyme from human platelets
T1 construct: Human platelets were prepared from platelet rich plasma (PRP); from tissue; host or cells: human platelets (platelet rich plasma, L. Sacco Hospital, Milan)
T1 sequence (Q14432 whole entry): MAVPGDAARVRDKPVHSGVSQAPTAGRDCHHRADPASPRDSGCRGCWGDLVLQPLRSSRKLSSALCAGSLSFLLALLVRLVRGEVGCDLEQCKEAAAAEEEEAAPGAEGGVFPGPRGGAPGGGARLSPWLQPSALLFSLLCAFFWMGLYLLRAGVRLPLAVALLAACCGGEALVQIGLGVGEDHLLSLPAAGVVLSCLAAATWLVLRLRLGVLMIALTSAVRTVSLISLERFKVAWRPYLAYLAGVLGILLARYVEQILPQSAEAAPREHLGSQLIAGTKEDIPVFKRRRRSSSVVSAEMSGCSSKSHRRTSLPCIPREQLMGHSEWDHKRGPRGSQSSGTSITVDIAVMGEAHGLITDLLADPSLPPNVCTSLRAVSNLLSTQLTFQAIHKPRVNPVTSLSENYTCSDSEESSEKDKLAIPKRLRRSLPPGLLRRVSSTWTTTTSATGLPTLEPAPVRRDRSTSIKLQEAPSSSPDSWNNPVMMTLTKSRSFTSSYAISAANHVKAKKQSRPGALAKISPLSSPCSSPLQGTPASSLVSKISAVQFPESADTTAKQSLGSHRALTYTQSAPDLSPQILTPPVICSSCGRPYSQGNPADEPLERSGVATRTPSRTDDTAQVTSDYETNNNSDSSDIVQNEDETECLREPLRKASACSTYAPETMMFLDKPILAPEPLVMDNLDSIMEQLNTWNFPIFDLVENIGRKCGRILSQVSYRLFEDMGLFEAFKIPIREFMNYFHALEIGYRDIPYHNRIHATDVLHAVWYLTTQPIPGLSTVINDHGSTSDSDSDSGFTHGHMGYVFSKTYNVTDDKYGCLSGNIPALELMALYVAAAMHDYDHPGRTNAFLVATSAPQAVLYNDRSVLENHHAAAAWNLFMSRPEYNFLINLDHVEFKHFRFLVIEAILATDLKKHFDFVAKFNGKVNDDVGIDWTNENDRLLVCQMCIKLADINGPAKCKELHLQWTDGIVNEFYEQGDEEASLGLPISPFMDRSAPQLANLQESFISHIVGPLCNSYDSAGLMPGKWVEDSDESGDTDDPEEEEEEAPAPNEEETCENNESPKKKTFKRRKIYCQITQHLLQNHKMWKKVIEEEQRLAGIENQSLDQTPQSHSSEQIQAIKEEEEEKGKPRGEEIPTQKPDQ
Method: (§1) Human platelets were prepared from platelet rich plasma (PRP) obtained from the Hematological Dept. of the “L.Sacco” Hospital of Milan. The PRP was centrifuged at 2,200 rpm for 15 minutes at 4° C. and the pellet was suspended in lysis solution (15 ml; 155 mM NH4Cl, 10 mM KHCO3 and 0.1 mM Na2EDTA, pH=7.4) and incubated for 10 minutes on ice-bath to remove the erythrocyte contamination. After a centrifuging at 1,400 rpm for 10 minutes at 4° C., platelets were suspended in 10 ml of […], 5 mM KCl, 1 mM MgSO4, 10 mM glucose, 10 mM HEPES and 0.05 U/ml of hirudin (pH=7.4), and stored at −20° C. until homogenization and chromatography.
(§2) Before the chromatographic step, platelets were thawed and 50 ml of 20 mM TRIS (pH=6.5) containing 5 mM βmercapto-ethanol, 2 mM EDTA, 50mM sodium acetate and 50 μM PMSF (homogenization buffer) were added. The platelet suspension was then homogenized by a Polytron homogenizer (Polytron PT 1200) for 20 seconds. The homogenate was centrifuged at 14,500 rpm for 20 minutes at 4° C., and the supernatant was applied to a UNO Q12 column (Bio-Rad) pre-equilibrated with the PMSF. A flow rate of 4.5 ml/min was used throughout the ion exchange chromatography procedure. The column was washed with PMSF (180 ml) and PDE 3 and PDE 5 were eluted by sodium acetate linear gradient from 0.05M to 1M. The fractions containing enzymatic activity were joined, dialysed against water and concentrated 10 times by ultrafiltration. The resulting solution was stored at −20° C. in the presence of ethylenglycole (30%) v/v) until use.
(§3) The enzyme activity was assessed with an Amersham kit based on the SPA technique (Scintillation Proximity Assay). The enzymatic reaction was effected in a total volume of 100 μl of TRIS/HCl buffer (50 mM, pH7.5), MgCl2 (8.3 mM), EGTA (1.7 mM), cAMP (for PDE 3 assay) or cGMP (for PDE 5 assay) (1 μM), [^3H]cAMP or [^3H]cGMP (10 μl), and 10 μl of the compounds of the invention. The reaction was started by adding the enzyme (10 μl) incubated for 40 minutes at 30° C. and stopped by adding 50 μl of SPA beads. The radioactivity due to the particles was measured in β-emitting counter. The results are expressed as percent activity versus the control present in each test.

[3] = target: T2, PDE 5 (Homo sapiens, UniProt O76074); assay: PDE 5 enzyme inhibition test (SPA); format: biochemical; details: at 10^-6 M; enzyme from human platelets
T2 construct: Human platelets were prepared from platelet rich plasma (PRP); from tissue; host or cells: human platelets (platelet rich plasma, L. Sacco Hospital, Milan)
Method: as §1, §2, §3

[4] = system: TNFα; assay: TNFα synthesis inhibition in LPS-stimulated human monocytes (ELISA); format: cell-based; details: Monocyte, LPS 1 ng/ml, 16 hours
Method: The monocytes were isolated from peripheral blood of healthy volunteers according the procedure of Schreek L., J. Natl. Cancer Inst., 1964, 32, 507. The monocytes and lymphocytes population was isolated by Ficoll gradient centrifugation, and the cells diluted at a density of 2.5×10^6 cells/ml in RPMI1640 incubation containing 1% inactivated bovine fetal serum, penicillin (100 U/ml) and streptomycin (100 U/ml) were placed in 24-wells plates (1 ml/well) and left to adhere for 1 hour at 37° C. with 5% CO2. At the end of the incubation the lymphocytes not adhering were removed by aspiration and the monocytes adhered to the plate were used in the next step.
The TNFα synthesis from human monocytes was measured according to the method of Barnette M. et al., Biochemical Pharmacology, 1996, 51, 949. The monocles were incubated for 1 hour with 1 ml of RPMI1640 incubation medium (1% inactivated bovine serum, 100 U/ml penicillin and streptomycin) containing different concentrations of the products according to the present invention or the carrier only for the controls. The TNFα synthesis from monocytes was induced by adding 1ng/ml of LPS (lipopolysaccharide of E. Coli) and after 16 hours of incubation at 37° C., 5% CO2, the incubation medium was removed, and the surnatant stored at −80° C. until the measurement. The TNFα levels were determined by ELISA test with an Amersham kit. The results are set forth in Table 2 as IC50 measured with the same calculation of example 67.

[5] = enzyme from human PMNs, 9 concentrations, 4-parameter logistic
[6] = at 10^-6 M, enzyme from human PMNs
[7] = at 10^-8 M, enzyme from human PMNs
[8] = at 10^-5 M, enzyme from human PMNs

IC50 [1, 5] [nM] | inhibition at 1 µM [2] [%] | inhibition at 1 µM [3] [%] | PDE 4 % inhibition [1, 6] [%] | PDE 4 % inhibition [1, 7] [%] | IC50 [4] [nM] | PDE 4 % inhibition [1, 8] [%] | IC50 ([1]; reference compounds) [nM] | activity on PDE 4 (in words) [1] | Structure (SMILES)
153 ± 85 | 4 | 2 | – | – | – | – | – | – | COc1ccc2c(Cc3c(Cl)cncc3Cl)nncc2c1OC1CCOC1 (stereo not drawn) [Compound 13]
206 ± 124 | – | 8 | – | – | – | – | – | – | COc1ccc2c(Cc3c(Cl)c[n+]([O-])cc3Cl)n[n+]([O-])cc2c1OC1CCOC1 (stereo not drawn) [Compound 19]
282 ± 36 | 11 | 0 | – | – | – | – | – | – | FC(F)Oc1ccc2c(Cc3c(Cl)cncc3Cl)nncc2c1OC1CCOC1 (stereo not drawn) [Compound 15, 1-(3,5-Dichloro-pyridin-4-ylmethyl)-6-difluoromethoxy-5-(tetrahydro-furan-3-yloxy)-phthalazine]
– | – | – | – | – | – | – | > 100000 | did not show to be active | COc1cc2c(Cc3ccncc3)n[nH]c(=O)c2cc1OC [Reference 1, 6,7-dimethoxy-4-(pyridin-4-yl-methyl)-2H-phthalazin-1-one, reference compound]
298 ± 37 | – | – | – | – | 389 ± 47 | – | – | – | COc1ccc2c(Cc3c(Cl)cncc3Cl)n[n+]([O-])cc2c1OC1CCOC1 (stereo not drawn) [Compound 14]
– | – | – | – | – | – | – | > 100000 | did not show to be active | COc1cc2c(CC3CCNCC3)n[nH]c(=O)c2cc1OC [Reference 2, 6,7-dimethoxy-4-(piperidin-4yl-methyl)-2H-phthalazin-1-one, reference compound]

Further lines, the molecule ahead of its results:

Structure (SMILES) | IC50 [1, 5] [nM] | inhibition at 1 µM [2] [%] | inhibition at 1 µM [3] [%] | PDE 4 % inhibition [1, 6] [%] | PDE 4 % inhibition [1, 7] [%] | IC50 [4] [nM] | PDE 4 % inhibition [1, 8] [%] | IC50 ([1]; reference compounds) [nM] | activity on PDE 4 (in words) [1]
COc1ccc2c(Cc3c(Cl)cncc3Cl)nncc2c1OC1CCCC1 [Compound 1, 5-Cyclopentyloxy-1-(3,5-dichloropyridin-4-ylmethyl)-6-methoxy-phthalazine] | 53.1 ± 10 | 0 | 20 | 84 | 19 | 254 ± 84 | – | – | –
COc1ccc2c(Cc3c(Cl)cncc3Cl)nncc2c1OC1Cc2ccccc2C1 [Compound 5, 1-(3,5-Dichloro-pyridin-4-methyl)5-(indan-2-yloxy)-6-methoxy-2H-phthalazine] | 29.5 ± 4 | – | – | 80 | 33 | 252 ± 120 | – | – | –
COc1cc2cnnc(Cc3c(Cl)cncc3Cl)c2cc1OC1CCCC1 [Compound 7, 7-Cyclopentyloxy-1-(3,5-dichloropyridin-4-ylmethyl)-6-methoxy-phthalazine] | 186 ± 43 | – | – | – | – | – | – | – | –
CCc1nnc(Cc2c(Cl)cncc2Cl)c2cc(OC3CCCC3)c(OC)cc12 [Compound 10, 7-Cyclopentyloxy-1-(3,5-dichloro-pyridin-4-ylmethyl)-4-ethyl-6-methoxy-phthalazine] | 74.9 ± 8 | 20 | 20 | 80 | 33 | 259 ± 86 | 93 | – | –
COc1cc2c(C)nnc(Cc3c(Cl)cncc3Cl)c2cc1OC1CCCC1 [Compound 9, 7-Cyclopentyloxy-1-(3,5-dichloro-pyridin-4-ylmethyl)-4-methyl-6-methoxy-phthalazine] | 146 ± 38 | – | – | – | – | – | – | – | –
FC(F)Oc1ccc2c(Cc3c(Cl)cncc3Cl)nncc2c1OC1CCCC1 [Compound 3, 5-Cyclopentyloxy-1-(3,5-dichloropyridin-4-yl-methyl)-6-difluoromethoxy-phthalazine] | 38.9 ± 7 | 5 | 14 | 100 | 34 | 167 ± 79 | – | – | –
COc1ccc2c(Nc3c(Cl)cncc3Cl)nncc2c1OC1CCCC1 [Compound 4, 5-Cyclopentyloxy-1-(3,5-dichloropyridin-4-ylamino)-6-methoxy-phthalazine] | 58.9 ± 5 | 8 | 19 | 73 | – | 187 ± 35 | – | – | –
COc1ccc2c(Cc3c(Cl)cncc3Cl)n[n+]([O-])cc2c1OC1CCCC1 [Compound 2, 5-Cyclopentyloxy-1-(3,5-dichloropyridin-4-ylmethyl)-6-methoxy-phthalazin-3-oxide] | 42.4 ± 5 | 20 | 4 | 94 | 25 | 139 ± 55 | 97 | – | –
COc1ccc2c(Cc3c(Cl)cncc3Cl)nncc2c1OCCCCCc1ccccc1 [Compound 6, 1-(3,5-Dichloro-pyridin-4-methyl)-5-(5-phenyl-pentyl-1-oxy)-6-methoxy-phthalazine] | 56.8 ± 9 | 25 | 20 | 79 | 27 | 83.5 ± 24 | – | – | –
